Laboratory results reported in patent publication US9700499B2, “Antimicrobial compositions” (GIVAUDAN SA, priority 2005, dated 2017).
Entries after “also recorded” stand apart in the source; their conditions may differ.

Key:
Type in all cases: cell-based
[1] = tested on: Staphylococcus aureus (DSMZ 799) and Pseudomonas aeruginosa (ATCC 15442); test: Activity against bacteria in cosmetic cream (mixed inoculum 1:1)
Method: As test organisms Staphylococcus aureus (DSMZ 799) and Pseudomonas aeruginosa (ATCC 15442) are used. The strains are grown overnight in Mueller-Hinton broth and adjusted to a cell density of 1×10^8 cfu (colony forming units) per ml.
The two bacterial strains are mixed in a ratio of 1:1 and 100 μl of this mixed inoculum is added to 10 ml aliquots of the cosmetic cream supplemented with test compounds as described in Example 2 in the concentration as indicated in the table below.
The resulting mixtures are incubated at room temperature and at the regular intervals samples are removed, suspended in neutralizer solution and diluted as described above (example 2).
Aliquots of these suspended and diluted samples are plated on tryptic soy agar supplemented with 0.5% Tween 80 and then incubated for 24 h at 37° C. Surviving bacteria are counted.

[2] = tested on: Aspergillus niger ATCC 16404 spores; test: Sporicidal effect of test compounds and preservatives in a cosmetic cream
Method: A cosmetic cream (pH 5.5) for application to the human skin is formulated as follows (in % w/w): […]
Glyceryl-monostearate, Sweet almond oil, Cetyl-stearyl-alcohol and Glyceryl dilaurate are melted at 80° C. Xanthan gum is dispersed into glycerine. Arginine is dissolved in water and heated to 75° C. The Xanthan gum-glycerin suspension is added to the heated water phase, the heated oil phase is added and the suspension is stirred at 300 rpm for 10 min whilst being cooled down slowly. Finally, a homogeneous emulsion is made with a high speed homogenizer at 5000 rpm.
Test samples of cream contain different amounts of preservatives and/or preservative enhancer. The preservative and preservative enhancer is added to an aliquot of 10 g of the cream in 50 ml tubes to a concentration (w/w) of 0.1-0.5% as shown in the table below. After addition of the preservative/preservative enhancer, the cream is thoroughly mixed to achieve a homogeneous distribution.
After 1-3 days of equilibration of the cream (storage at room temperature to achieve a homogenous partitioning of compounds between oil and water phase), to each sample 100 μl of a spore suspension of Aspergillus niger ATCC 16404 containing 3×10^7 spores/ml (prepared as described in example 1) is added. After regular test intervals, samples of 1 g cream are removed and added to 20 ml of a neutralizer solution containing 0.2% lecithin, 2% Tween 80 and 0.5% NaCl. These dilutions are vigorously shaken for 10 min until the cream is dissolved, and then aliquots of this solution are spread plated on potato dextrose agar containing 0.2% Tween 80. After 48 h to 72 h the number of surviving colony forming units (and therefore surviving spores) are counted.
The sporidical effect in cream (prepared as described in example 2) is compared when using the test compounds alone or in combination with phenoxyethanol, benzyl alcohol or 2-Phenylethanol.
The experiments described in example 2-4 are performed with varying concentrations of test compound and preservative as indicated in Table 5.

[3] = tested on: Candida albicans ATCC 10231, Candida guilliermondii ATCC 6260 and Candida parapsilosis ATCC 22019; test: Activity against yeasts in cosmetic cream (mixture of three yeast strains 1:1:1)
Method: The same procedure as described above except for the changes mentioned below is performed with a mixture of the three yeast strains Candida albicans ATCC 10231, Candida guilliermondii ATCC 6260 and Candida parapsilosis ATCC 22019 that replace the bacterial strains.
The yeast strains are grown in Sabouraud liquid medium, washed and suspended in saline and adjusted to 5×10^7 cfu (colony forming units) per ml. The Inoculum of the three strains is then pooled in a ratio of 1:1:1. For determining the reduction factor by counting of the colonies formed, the samples inoculated with the yeast strains are spread plated on potato dextrose, incubated until colonies have formed and counted.

[4] = tested on: Aspergillus niger ATCC 16404 spores; test: Sporicidal effect of test compounds in water
Method: Aspergillus niger ATCC 16404 spores are added to water to obtain a density of 3×10^5 spores/ml. In order to prepare the spores, the test strain is grown for 5 days on potato dextrose agar at room temperature. The spores are harvested with a solution containing 0.1% Tween 80, peptone 0.1% and NaCl 0.85% and the spore concentration is adjusted to the density indicated above.
Test compounds are dissolved in dipropyleneglycol to a concentration of 20%.
These stock solutions are added to 10 ml aliquots of the spore suspension to obtain a final concentration of the test compounds of 0.1%. The sporicidal effect is shown by a reduction of spore counts after 7 days.
The reduction factor is determined as follows. Aliquots of the above prepared suspension of microorganisms (here: spore suspension prepared as described above) are plated on a suitable agar medium (see above) and the developing colonies are counted both for samples with test compound and for a negative probe (water). The count of the negative control is divided by the count of the test compound and thereby the reduction factor is determined. A negative control (water) accordingly has a reduction factor of 1 (no effect on the microorganism).

[5] = test compound 0.1% alone, no preservative
[6] = test compound 0.1% with 2-Phenylethanol 0.5%
[7] = test compound 0.1% with Phenoxyethanol 0.5%

For `O=Cc1ccc(O)cc1` [4-hydroxybenzaldehyde], the “Bacteria (cfu/g cream) 24 h” value [1, 5] was 3.8 × 10^3 cfu/g cream, the “Bacteria (cfu/g cream) 7 d” value [1, 5] was 1.28 × 10^4 cfu/g cream and the “Bacteria (cfu/g cream) 24 h” value [1, 6] was 1 × 10^3 cfu/g cream. For the same compound, the “Bacteria (cfu/g cream) 7 d” value [1, 6] was under 200 cfu/g cream, the “Bacteria (cfu/g cream) 24 h” value [1, 7] was 1.9 × 10^4 cfu/g cream and the “Bacteria (cfu/g cream) 7 d” value [1, 7] was under 200 cfu/g cream. For the same compound, the “Spores/ml after 7 d” value ([2]; 0.1% test compound and 0.5% phenoxyethanol (Table 2)) was under 100 Spores/ml, the Reduction factor ([2]; 0.1% test compound and 0.5% phenoxyethanol, 7 d (Table 2)) was over 737 and the “Enhancing activity in cream” value ([2]; 0.1% test compound with phenoxyethanol, complete killing of spores within 7 days) was “excellent enhancing activity”. The “Reduction factor A. niger, 7 d” value ([2]; test compound 0.05% w/w with preservative (phenoxyethanol) 0.5% w/w (Table 5)) was 66, the “Reduction factor A. niger, 7 d” value ([2]; test compound 0.1% w/w with preservative (phenoxyethanol) 0.3% w/w (Table 5)) was 295 and the “Reduction factor A. niger, 7 d” value ([2]; test compound 0.1% w/w with preservative (phenoxyethanol) 0.5% w/w (Table 5)) was over 1180. For the same compound, the “Reduction factor A. niger, 7 d” value ([2]; test compound 0.1% w/w, preservative 0 (Table 5)) was 2, the “Spores/ml after 7 d” value ([2]; test compound 0.1% with 2-Phenylethanol 0.25% + benzylalcohol 0.25%) was under 100 Spores/ml and the Reduction factor ([2]; test compound 0.1% with 2-Phenylethanol 0.25% + benzylalcohol 0.25%, 7 d) was over 1040. The “Spores/ml after 7 d” value [2, 6] was under 100 Spores/ml, the “Spores/ml after 7 d” value ([2]; test compound 0.1% with 2-Phenylethanol 0.5% + benzylalcohol 0.5%) was under 100 Spores/ml and the Reduction factor ([2]; test compound 0.1% with 2-Phenylethanol 0.5% + benzylalcohol 0.5%, 7 d) was over 1040. For the same compound, the Reduction factor ([2]; test compound 0.1% with 2-Phenylethanol 0.5%, 7 d) was over 1040, the “Spores/ml after 7 d” value ([2]; test compound (0.1% where given) with Phenoxyethanol 0.5% (Table 3)) was under 100 Spores/ml and the Reduction factor ([2]; test compound (0.1% where given) with Phenoxyethanol 0.5%, 7 d (Table 3)) was over 1040. The “Spores/ml after 7 d” value ([2]; test compound alone (0.1% where given), no preservative (Table 3)) was 1.0 × 10^5 Spores/ml, the Reduction factor ([2]; test compound alone (0.1% where given), no preservative, 7 d (Table 3)) was 1.04 and the “Enhancing effect of the test compound in presence of the preservative compound (phenoxyethanol)” value ([2]; varying concentrations (Table 5)) was “enhancing effect”. For the same compound, the “Yeasts (cfu/g cream) 48 h” value [3, 5] was 7.4 × 10^3 cfu/g cream, the “Yeasts (cfu/g cream) 7 d” value [3, 5] was 2.2 × 10^5 cfu/g cream and the “Yeasts (cfu/g cream) 48 h” value [3, 6] was under 200 cfu/g cream. For the same compound, the “Yeasts (cfu/g cream) 7 d” value [3, 6] was under 200 cfu/g cream, the “Yeasts (cfu/g cream) 48 h” value [3, 7] was under 200 cfu/g cream and the “Yeasts (cfu/g cream) 7 d” value [3, 7] was under 200 cfu/g cream. For the same compound, the Reduction factor ([4]; 0.1% test compound in water, after 7 days, count of negative control divided by count of test compound) was under 2, the Spores/ml ([4]; 0.1% test compound in water, spore count after 7 days) was >1.2 × 10^5 Spores/ml and the “Sporicidal effect (reduction of spore counts) in water” value ([4]; test compound alone in water at 0.1%) was “no significant sporicidal effect; also recorded: No significant reduction of spore counts”.
